Broadly, the IC50 is the point on the concentration scale where inhibition reaches its midpoint.

The source of these data is patent US20060079493A1, “Methods for treating genetically- defined proliferative disorders with hsp90 inhibitors” (priority 2001, published 2006).

Assay [1] concerns RPTEC. The assay can be described thus: MTS assay, cytotoxicity (growth inhibition) on normal cells RPTEC. Type of assay: cell-based. The following applies: for Metabolic Activity RPTEC: MTS, 3-6 days, DMSO control = 100%; for IC50: read-out: RPTEC IC50. As to the method: (§1) To K562 cells (suspension grown in DMEM media supplemented w/10% Fetal Bovine Serum (FBS) and 1 mM HEPES; subcultured biweekly at 100K cells/ml) in a 96 well plate (0.1 ml medium; 2000 cells per well) were added various concentrations of 17-AAG (CF7) and the effects measured over a period of 3-6 days using an MTS assay protocol similar to that offered by Promega Corp (Madison, Wis., US; cat# G5421).
(§2) The MTS assay is a colorimetric assay for determining the number of viable cells in proliferation, cytotoxicity or chemosensitivity assays. The CellTiter 96® AQueous Assay is composed of solutions of tetrazolium compound (3-(4,5-dimethylthiazol-2-yl)-5-(3-carboxymethoxyphenyl)-2-(4-sulfophenyl)-2H-tetrazolium, inner salt; MTS) and an electron coupling reagent (phenazine methosulfate) PMS. MTS is bioreduced by cells into a formazan that is soluble in tissue culture medium. Barltrop et al. (1991) Bioorg. & Med. Chem. Lett. 1, 611. The absorbance of the formazan at 490 nm can be measured directly from 96 well assay plates without additional processing. Cory et al. (1991) Cancer Commun. 3, 207; Riss, T. L. and Moravec, R. A. (1992) Mol. Biol. Cell 3 (Suppl.), 184a. The conversion of MTS into the aqueous soluble formazan is accomplished by dehydrogenase enzymes found in metabolically active cells. The quantity of formazan product as measured by the amount of 490 nm absorbance is directly proportional to the number of living cells in culture.
(§3) Using the MTS assay, cytotoxicity (defined as “growth inhibition” and not necessarily versus renal proximal tubular […] cells (normal cells) was determined as shown in the following Tables. “Sem” refers to standard error of the mean, which is calculated as the standard deviation divided by the square root of the sample size; the numbers reflect triplicate replicates. Dilutions of the compounds were prepared in DMSO and straight DMSO was used as a control corresponding to 100% metabolic activity.
(Formazan colour is commonly taken as a measure of viable cells.)

In assay [2] the test system is K562 cells. In words: MTS assay, cytotoxicity (growth inhibition) on K562. Type of assay: cell-based, human. The conditions noted are these: for Metabolic Activity K562: MTS, 3-6 days, DMSO control = 100%. As to the method: The cell line is widely available, e.g., from American Type Culture Collection (“ATCC”; Manassas, Va., USA; cat# CCL-243) and can be propogated in a variety of media, e.g., ATCC's Iscove's modified Dulbecco's medium with 4 mM L-glutamine adjusted to contain 1.5 g/L sodium bicarbonate, 90%; fetal bovine serum, 10%; 37C.
as §1, §2, §3

The test system of assay [3] is bcr-abl-negative leukemia lines. The conditions noted are these: mean of four cell lines; read-out: mean IC50 in a panel of four bcr-abl-negative leukemia lines; cited from earlier work.
In assay [4] the test system is bcr-abl expressing leukemia cell lines. The following applies: average of six cell lines; read-out: IC50 averaged in six bcr-abl expressing leukemia cell lines; cited from earlier work.
Where [5] appears, read: Homo sapiens, K562, read-out: K562 IC50.
Where [6] appears, read: separate study, compared with compound 237.

Read-outs that look alike come from different tables or passages of the source.

Turning to `C=CCNC1=C2C[C@@H](C)C[C@H](OC)[C@H](O)[C@@H](C)/C=C(\C)[C@H](OC(N)=O)[C@@H](OC)/C=C\C=C(/C)C(=O)NC(=CC1=O)C2=O` [CF7, 17-allylamino-17-demethoxygeldanamycin], the “Metabolic Activity RPTEC” value was found to be 98.69% in assay [1] (0.0003 uM); 92.26% in assay [1] (0.0010 uM); 92.73% in assay [1] (0.0030 uM); 91.81% in assay [1] (0.0100 uM); 86.40% in assay [1] (0.0300 uM); 86.46% in assay [1] (0.1000 uM). Also, the “Metabolic Activity RPTEC” value stood at 58.03% in assay [1] (0.3000 uM), 34.01% in assay [1] (1.0000 uM), 22.01% in assay [1] (3.0000 uM) and 20.10% in assay [1] (10.0000 uM). In addition, the half-maximal inhibitory concentration (IC50) in assay [1] (normal cells, MTS assay) was 400 nM; in assay [2] (bcr-abl fusion protein cancer line, MTS assay, read-out: K562 IC50), 70 nM. Also, the “Metabolic Activity K562” value in assay [2] (0.0003 uM) is 88.00%; in assay [2] (0.0010 uM), 83.81%; in assay [2] (0.0030 uM) it was 83.00%; in assay [2] (0.0100 uM) it was 85.94%; in assay [2] (0.0300 uM) it was 80.12%; in assay [2] (0.1000 uM), 44.06%. Moreover, the “Metabolic Activity K562” value in assay [2] (0.3000 uM) was 14.40%; in assay [2] (1.0000 uM) it was 9.51%; in assay [2] (3.0000 uM) it was 8.12%; in assay [2] (10.0000 uM) it was 7.89%.
As to `COC1/C=C\C=C(/C)C(=O)NC2=CC(=O)C(NCCCN(C)CCCNC3=C4CC(C)CC(OC)C(O)C(C)/C=C(\C)C(OC(N)=O)C(OC)/C=C\C=C(/C)C(=O)NC(=CC3=O)C4=O)=C(CC(C)CC(OC)C(O)C(C)/C=C(\C)C1OC(N)=O)C2=O` (stereo not shown) [Compound 208], the IC50 in assay [1] (Homo sapiens, RPTEC) turned out to be 1000 nM; in assay [2] (setting [5]), 50 nM.
For `COC1/C=C\C=C(/C)C(=O)NC2=CC(=O)C(NCCCNCCCNC3=C4CC(C)CC(OC)C(O)C(C)/C=C(\C)C(OC(N)=O)C(OC)/C=C\C=C(/C)C(=O)NC(=CC3=O)C4=O)=C(CC(C)CC(OC)C(O)C(C)/C=C(\C)C1OC(N)=O)C2=O` (stereo not shown) [Compound 237], the IC50 in assay [1] (Homo sapiens, RPTEC) came out at 4000 nM; in assay [2] (setting [5]) it was 100 nM.
With `CCCNC/C=C/CNC1=C2CC(C)CC(OC)C(O)C(C)/C=C(\C)C(OC(N)=O)C(OC)/C=C\C=C(/C)C(=O)NC(=CC1=O)C2=O` (stereo not shown) [Compound 481], the IC50 in assay [1] (Homo sapiens, RPTEC) amounted to 4000 nM; in assay [2] (setting [5]), 400 nM.
As for `COC1/C=C\C=C(/C)C(=O)NC2=CC(=O)C(NCCN(C)CCNC3=C4CC(C)CC(OC)C(O)C(C)/C=C(\C)C(OC(N)=O)C(OC)/C=C\C=C(/C)C(=O)NC(=CC3=O)C4=O)=C(CC(C)CC(OC)C(O)C(C)/C=C(\C)C1OC(N)=O)C2=O` (stereo not shown) [Compound 483], the 50% inhibitory concentration (IC50) in assay [1] (Homo sapiens, RPTEC) came to 1000 nM; in assay [2] (Homo sapiens, K562, bcr-abl fusion protein cancer line, MTS assay, read-out: K562 IC50) it was 70 nM.
With `CO[C@H]1[C@@H](OC)C[C@H](C)[C@@H](OC)C2=CC(=O)C=C(NC(=O)/C(C)=C/C=C\[C@H](OC)[C@@H](OC(N)=O)/C(C)=C/[C@@H]1C)C2=O` [herbimycin A], the IC50 in assay [3] is 399 nM; in assay [4], 29.3 nM.
Take `C[C@@H]1C[C@H]2O[C@@H]2/C=C\C=C\C(=O)Cc2c(Cl)c(O)cc(O)c2C(=O)O1` [radicicol]: in assay [1] (setting [6]), the “effect on RPTEC (separate study)” value is recorded as “approximating those obtained for compound 237”. In addition, the “effect on K562 (separate study)” value in assay [2] (setting [6]) was “approximating those obtained for compound 237”.
